Measurements as given in ChEMBL document CHEMBL3882724 (2013).

Experiments:
[1] = molecular target: T1, Steroid 17-alpha-hydroxylase/17,20 lyase (Homo sapiens, UniProt P05093); assay: Inhibition of CYP17 in human testicular microsomes using 17alpha-hydroxypregnenolone as substrate assessed as decrease in DHEA levels at 10 nM after 90 mins by ELISA relative to control; design: species or system Testis; settings: 1.5 h
T1 sequence (P05093 whole entry): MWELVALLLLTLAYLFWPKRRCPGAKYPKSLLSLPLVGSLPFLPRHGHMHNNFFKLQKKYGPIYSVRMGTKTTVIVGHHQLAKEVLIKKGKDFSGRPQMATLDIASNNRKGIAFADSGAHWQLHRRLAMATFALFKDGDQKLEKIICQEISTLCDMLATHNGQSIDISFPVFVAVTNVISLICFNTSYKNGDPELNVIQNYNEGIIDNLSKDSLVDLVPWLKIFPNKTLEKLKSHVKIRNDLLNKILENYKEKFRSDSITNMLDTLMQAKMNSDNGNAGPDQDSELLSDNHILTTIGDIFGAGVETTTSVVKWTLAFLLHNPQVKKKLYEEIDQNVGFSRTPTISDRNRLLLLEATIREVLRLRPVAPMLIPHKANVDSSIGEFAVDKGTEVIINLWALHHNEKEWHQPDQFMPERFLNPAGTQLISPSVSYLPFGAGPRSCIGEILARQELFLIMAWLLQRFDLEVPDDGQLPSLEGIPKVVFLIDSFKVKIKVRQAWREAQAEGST

[2] = molecular target: T1, Steroid 17-alpha-hydroxylase/17,20 lyase; assay: Inhibition of CYP17 in human testicular microsomes using 17alpha-hydroxypregnenolone as substrate assessed as decrease in DHEA levels after 90 mins by ELISA; design: species or system Testis
[3] = Half life in human liver microsomes at 1 uM by LC-MS/MS analysis
[4] = Half life in rat liver microsomes at 1 uM by LC-MS/MS analysis
[5] = molecular target: T2, CYP21 (steroid 21-hydroxylase) (Homo sapiens, UniProt P08686); assay: Inhibition of human CYP21 transfected in HEK293 cells assessed as decrease in conversion of progesterone to 11-deoxycorticosterone preincubated for 5 hrs followed by progesterone addition measured after 20 hrs by ELISA; type: cell-based; design: concentration or dose not given beside the values; settings: HEK293 cells transfected with human CYP21, probe progesterone
T2 sequence (P08686 whole entry): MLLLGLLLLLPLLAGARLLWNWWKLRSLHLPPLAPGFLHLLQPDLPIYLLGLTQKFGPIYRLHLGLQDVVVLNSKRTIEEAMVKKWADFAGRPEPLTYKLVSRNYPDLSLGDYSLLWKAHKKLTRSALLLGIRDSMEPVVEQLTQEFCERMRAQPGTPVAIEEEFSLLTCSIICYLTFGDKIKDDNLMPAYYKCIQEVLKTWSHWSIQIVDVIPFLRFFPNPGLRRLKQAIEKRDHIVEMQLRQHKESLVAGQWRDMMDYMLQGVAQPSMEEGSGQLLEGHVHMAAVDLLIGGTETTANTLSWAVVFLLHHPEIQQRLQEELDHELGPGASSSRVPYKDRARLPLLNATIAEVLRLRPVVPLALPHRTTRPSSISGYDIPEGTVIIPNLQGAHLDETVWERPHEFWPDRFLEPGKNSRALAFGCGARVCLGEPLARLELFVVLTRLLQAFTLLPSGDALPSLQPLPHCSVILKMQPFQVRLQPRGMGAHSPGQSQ

Row | SMILES | inhibition at 0.01 µM [1] | IC50 [2] | also measured
1 | Cc1cncc(C2=CC[C@H]3[C@@H]4CCC5N(C)C(=O)COC[C@]5(C)[C@H]4CC[C@]23C)c1 (some centres undefined) | 1 to 50% |  | 
2 | Cc1ccncc1C1=CC[C@H]2[C@@H]3CC[C@H]4CCCCC[C@]4(C)[C@H]3CC[C@]12C | 1 to 50% |  | 
3 | C[C@]12CCC(=O)CCC1=CC[C@@H]1[C@@H]2CC[C@]2(C)C(n3ccnc3)=CC[C@@H]12 | ≥ 80% | ≤ 11 nM | half-life at 1 µM [3]: 1 to 50 min
4 | C=Cc1cncc(C2=CC[C@H]3[C@@H]4CCN5C(=O)CCCC[C@]5(C)[C@H]4CC[C@]23C)c1 | 50 to 80% | ≤ 11 nM | 
5 | COc1cncc(C2=CC[C@H]3[C@@H]4CCC5=CCN(C)CC[C@]5(C)[C@H]4CC[C@]23C)c1 | 1 to 50% |  | 
6 | CCCOc1cncc(C2=CC[C@H]3[C@@H]4CCC5=CCN(C)CC[C@]5(C)[C@H]4CC[C@]23C)c1 | 1 to 50% |  | 
7 | CCCOc1cncc(C2=CC[C@H]3[C@@H]4CCN5C(=O)CCCC[C@]5(C)[C@H]4CC[C@]23C)c1 | 50 to 80% | ≤ 11 nM | 
8 | C[C@]12CC[C@H]3[C@@H](CCN4CCCCC[C@]34C)[C@@H]1CC=C2c1cccnc1 | 1 to 50% |  | 
9 | C[C@]12CCCCC1C(O)C[C@@H]1[C@@H]2CC[C@]2(C)C(n3ccnc3)=CC[C@@H]12 (some centres undefined) | 50 to 80% | ≤ 11 nM | half-life at 1 µM [3]: 1 to 50 min
10 | Cc1cncc(C2=CC[C@H]3[C@@H]4CC[C@H]5CCCCC[C@]5(C)[C@H]4CC[C@]23C)c1 | 1 to 50% |  | 
11 | COc1cncc(C2=CC[C@H]3[C@@H]4CC[C@H]5CCCCC[C@]5(C)[C@H]4CC[C@]23C)c1 | 50 to 80% |  | 
12 | CN1CC=C2CC[C@@H]3[C@H](CC[C@]4(C)C(c5cccnc5)=CC[C@@H]34)[C@@]2(C)CC1 | 1 to 50% | ≤ 11 nM | 
13 | CN1CC[C@@]2(C)C(=CC1=O)CC[C@@H]1[C@@H]2CC[C@]2(C)C(n3cnc4ccccc43)=CC[C@@H]12 | 1 to 50% |  | 
14 | C[C@]12CC[C@H]3[C@@H](CCC4=CC(=O)NCC[C@@]43C)C1=CC=C2c1cccnc1 | 50 to 80% | ≤ 11 nM | 
15 | Cc1cncc(C2=CC[C@H]3[C@@H]4CC[C@H]5CCOCC[C@]5(C)[C@H]4CC[C@]23C)c1 | 50 to 80% | ≤ 11 nM | 
16 | Cc1cncc(C2=CC[C@H]3[C@@H]4CCC5=CC(=O)N(C)CC[C@]5(C)[C@H]4CC[C@]23C)c1 | 50 to 80% | ≤ 11 nM | 
17 | COc1cncc(C2=CC=C3[C@@H]4CC=C5C[C@@H](OC(C)=O)CC[C@]5(C)[C@H]4CC[C@]23C)c1 | ≥ 80% | ≤ 11 nM | 
18 | C[C@]12CC[C@H]3[C@@H](CC[C@H]4CNC(=O)CC[C@@]43C)C1=CC=C2n1ccnn1 | 1 to 50% |  | 
19 | COc1cncc(C2=CC[C@H]3[C@@H]4CCN5CCCCC[C@]5(C)[C@H]4CC[C@]23C)c1 | 1 to 50% |  | 
20 | Cc1cncc(C2=CC[C@H]3[C@@H]4CC(O)C5CCCC[C@]5(C)[C@H]4CC[C@]23C)c1 (some centres undefined) |  | ≤ 11 nM | half-life at 1 µM [4]: 1 to 10 min; half-life at 1 µM [3]: 1 to 10 min
21 | C[C@]12CCNCC[C@@H]1CC[C@@H]1[C@@H]2CC[C@]2(C)C(n3ccnn3)=CC[C@@H]12 | 1 to 50% |  | 
22 | C[C@]12CC[C@H]3[C@@H](CC=C4C[C@@H](O)CC[C@@]43C)C1=CC=C2n1ccnc1 | ≥ 80% | ≤ 11 nM | half-life at 1 µM [3]: ≥ 50 min

Row | SMILES | inhibition at 0.01 µM [1] | IC50 [2] | also measured
23 | CCc1cncc(C2=CC[C@H]3[C@@H]4CC=C5CCCC[C@]5(C)[C@H]4CC[C@]23C)c1 | 1 to 50% |  | 
24 | CC(=O)O[C@H]1CC[C@@]2(C)[C@@H](CC[C@H]3C4=CC=C(n5ccnc5)[C@@]4(C)CC[C@@H]32)C1 | ≥ 80% | ≤ 11 nM | 
25 | CC(=O)O[C@H]1CC[C@@]2(C)[C@@H](CC[C@H]3C4=CC=C(c5cccnc5)[C@@]4(C)CC[C@@H]32)C1 | ≥ 80% |  | 
26 | Cc1cncc(C2=CC[C@H]3[C@@H]4CCN5CCCCC[C@]5(C)[C@H]4CC[C@]23C)c1 | 1 to 50% |  | 
27 | C[C@]12CC[C@H]3[C@@H](CC[C@H]4C[C@@H](O)CC[C@@]43C)C1=CC=C2c1cccnc1 | ≥ 80% | ≤ 11 nM | half-life at 1 µM [3]: ≥ 50 min
28 | C[C@]12CC[C@H](O)C[C@@H]1CC[C@@H]1[C@@H]2CC[C@]2(C)C(n3ccnn3)=CC[C@@H]12 | ≥ 80% | ≤ 11 nM | 
29 | C[C@]12CC[C@H]3[C@@H](CC[C@H]4C[C@@H](O)CC[C@@]43C)C1=CC=C2n1ccnn1 |  |  | half-life at 1 µM [4]: 1 to 10 min; half-life at 1 µM [3]: 1 to 10 min
30 | COC1CC[C@@]2(C)[C@@H](CC[C@@H]3[C@@H]2CC[C@]2(C)C(n4ccnn4)=CC[C@@H]32)C1 (some centres undefined) | 1 to 50% |  | 
31 | CCOc1cncc(C2=CC[C@H]3[C@@H]4CC[C@H]5CCOCC[C@]5(C)[C@H]4CC[C@]23C)c1 | 50 to 80% |  | 
32 | COc1cncc(C2=CC[C@H]3[C@@H]4CCC5=CC(=O)NCC[C@]5(C)[C@H]4CC[C@]23C)c1 | 50 to 80% | ≤ 11 nM | 
33 | CCc1cncc(C2=CC[C@H]3[C@@H]4CCC5=CCN(C)CC[C@]5(C)[C@H]4CC[C@]23C)c1 | 1 to 50% |  | 
34 | COC1CC[C@@]2(C)[C@@H](CC[C@@H]3[C@@H]2CC[C@]2(C)C(c4cncc(C)c4)=CC[C@@H]32)C1 (some centres undefined) | 1 to 50% |  | 
35 | C[C@]12CCNC(=O)C=C1CC[C@@H]1[C@@H]2CC[C@]2(C)C(n3cnc4ccccc43)=CC[C@@H]12 | 1 to 50% |  | 
36 | C[C@]12CC(O)C[C@@H]1CC[C@@H]1[C@@H]2CC[C@]2(C)C(n3ccnn3)=CC[C@@H]12 (some centres undefined) | ≤ 11% | 50 to 80 nM | 
37 | CCOc1cncc(C2=CC[C@H]3[C@@H]4CCC5N(C)C(=O)COC[C@]5(C)[C@H]4CC[C@]23C)c1 (some centres undefined) | 1 to 50% |  | 
38 | C[C@]12CCCCC[C@@H]1CC[C@@H]1[C@@H]2CC[C@]2(C)C(c3cccnc3)=CC[C@@H]12 | 1 to 50% |  | 
39 | COc1cncc(C2=CC[C@H]3[C@@H]4CC(=O)C5CCCC[C@]5(C)[C@H]4CC[C@]23C)c1 (some centres undefined) |  | ≤ 11 nM | half-life at 1 µM [4]: 1 to 10 min; half-life at 1 µM [3]: 1 to 10 min
40 | C[C@]12CCC(=O)NC[C@@H]1CC[C@@H]1[C@@H]2CC[C@]2(C)C(n3ccnn3)=CC[C@@H]12 | 1 to 50% |  | 
41 | Cc1cncc(C2=CC[C@H]3[C@@H]4CCC5=CN(C)CCC[C@]5(C)[C@H]4CC[C@]23C)c1 | 1 to 50% |  | 
42 | Cc1cncc(C2=CC[C@H]3[C@@H]4CC=C5CCCC[C@]5(C)[C@H]4CC[C@]23C)c1 | 50 to 80% |  | 
43 | COC1CC2[C@@H]3CC=C(n4ccnc4)[C@@]3(C)CC[C@@H]2[C@@]2(C)CCC3CC312 (single isomer, unassigned) | ≥ 80% | ≤ 11 nM | inhibition at 20 h [5]: 10 to 50%
